Data as given in patent US12275721B2, “Indazole carboxamides as kinase inhibitors” (BRISTOL-MYERS SQUIBB COMPANY, priority 2019, dated 2025).
Read-outs that look alike come from different tables or passages of the source.

Columns and labels:
[1] = target: T1, His-GST-TVMV-hRIPK1(1-324) (Homo sapiens, UniProt Q13546); experiment: RIPK1 HTRF Binding Assay; conditions: HTRF probe displacement, 1 h at rt
T1 construct: 1 nM His-GST-TVMV-hRIPK1(1-324) in FRET Buffer; made in house; host or cells: Spodoptera frugiperda (Sf9) insect cells, baculovirus (Bac-to-Bac)
T1 sequence (Q13546 1-324): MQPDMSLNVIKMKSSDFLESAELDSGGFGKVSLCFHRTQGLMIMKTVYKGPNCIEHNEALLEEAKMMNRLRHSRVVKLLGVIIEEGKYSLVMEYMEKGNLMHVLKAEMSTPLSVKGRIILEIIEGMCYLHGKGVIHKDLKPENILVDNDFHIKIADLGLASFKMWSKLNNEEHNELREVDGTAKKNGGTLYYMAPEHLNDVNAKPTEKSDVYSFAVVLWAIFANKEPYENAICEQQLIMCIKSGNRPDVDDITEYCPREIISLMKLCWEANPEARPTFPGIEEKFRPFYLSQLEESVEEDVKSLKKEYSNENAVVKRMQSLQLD
Experimental: A solution was prepared containing 0.2 nM Anti GST-Tb (Cisbio, 61GSTTLB), 90.6 nM probe and 1 nM His-GST-TVMV-hRIPK1(1-324) in FRET Buffer (20 mM HEPES, 10 mM MgCl2, 0.015% Brij-35, 4 mM DTT, 0.05 mg/mL BSA). Using Formulatrix Tempest, the detection antibody/enzyme/probe solution ([…]) was dispensed into wells of a 1536 plate (Black Low Binding Polystyrene 1536 Plate (Corning, 3724)) containing 10 nL of compounds of interest at appropriate concentration in DMSO. The plate was incubated at rt for 1 h. FRET was measured using the EnVision plate reader (Excitation: 340 nm, Emission: 520 nm/[…]). Total signal (0% inhibition) was calculated from wells containing 10 nL DMSO only.
Cloning and Baculovirus Expression of RIPK1 Construct
The coding region of human RIPK1(1-324) flanked by NdeI site at 5′ end and stop codon TGA and XhoI site at 3′ end was codon optimized and gene synthesized at GenScript USA Inc. (Piscataway, NJ) and subcloned into a modified pFastBac1 vector (Invitrogen, Carlsbad, CA) with N-terminal His-GST-TVMV tag, to generate His-GST TVMV-hRIPK1(1-324)-pFB. The fidelity of the synthetic fragment was confirmed by sequencing. Baculovirus was generated for the construct using the Bac-to-Bac baculovirus expression system (Invitrogen) according to the manufacturer's protocol. Briefly, recombinant bacmid was isolated from transformed DH10Bac E. coli competent cells 20 (Invitrogen) and used to transfect Spodoptera frugiperda (Sf9) insect cells (Invitrogen). Baculovirus was harvested 72 hours post transfection and a virus stock was prepared by infecting fresh Sf9 cells at a 1/1000 (v/v) ratio for 66 hours. For large scale protein production, Sf9 cells (Expression System, Davis, CA) grown in ESF921 insect medium (Expression System) at 2×10^6 cells/ml were infected with virus stock at a 1/100 (v/v) ratio for 66 hours. The production was carried out either at a 10 L scale in a 22 L cellbag (GE Healthcare Bioscience, Pittsburgh, PA) or at a 20 L scale in a 50 L cellbag using WAVE-Bioreactor System 20/50 (GE Healthcare Bioscience). The infected cells were harvested by centrifugation at 2000 rpm for 20 min at 4° C. in a SORVALL® RC12BP centrifuge. The cell pellets was stored at −70° C. before protein was purified.
Purification of His-GST-TVMV-hRIPK1(1-324)
RIPK1 containing cell paste was resuspended in 50 mM Tris pH 7.5, 150 mM NaCl, 10 mM imidazole, 5% glycerol, 5 mM MgSO4, 1 mM TCEP, 25 U/ml Benzonase, and Complete Protease Inhibitor tablets (1/50 ml, Roche Diagnostics, Indianapolis, IN). The cells were lysed by nitrogen cavitation using an unstirred pressure vessel @ 525 PSI (Parr Instrument Company, Moline, IL). The suspension was clarified by centrifugation at 136,000×g for 40 min, at 4° C. The lysate was decanted from the pellet and passed through a 5 ml NiNTA Superflow cartridge (Qiagen, Valencia, CA) using an AKTA Pure (GE Healthcare). Column was eluted with 10 CV linear gradient into 50 mM Tris 7.5, 150 mM NaCl, 500 mM imidazole, 5% glycerol, 1 mM TCEP. Peak fractions were pooled and loaded directly onto 5 ml GSTrap 4B column (GE Healthcare). Column was washed with 50 mM Tris 7.0, 150 mM NaCl, […], 1 mM DTT and eluted in 10 CV linear gradient into 50 mM Tris 8.0, 150 mM NaCl, 20 mM reduced glutathione, 50% glycerol, 1 mM DTT. Fractions identified by SDS-PAGE as containing RIPK1 were pooled and concentrated using 30 kDa MWCO spin concentrators (Amicon Ultra-15, Millipore, Billerica, MA) and loaded onto a HiLoad 26/600 Superdex 200 column (GE Healthcare) equilibrated in 25 mM Tris 7.5, 150 mM NaCl, 2 mM TCEP, […]. The RTPK1 protein eluted as a dimer off the SEC column. The yield was ˜8 mg/L with a purity […] as determined by Coomassie stain SDS-PAGE gel analysis. […] Protein was aliquoted and stored at −80° C. Using these assays, the IC50 values of the following compounds were determined.

[2] = tested on: MLKL phosphorylation in HT29-L23 human colorectal adenocarcinoma cells; experiment: MLKL Phosphorylation High-Content Assay; type: cell-based; conditions: necroptosis induced with TNFα, SMAC mimetic and Z-VAD, 6 h, read-out: pMLKL (IC50)
Experimental: MLKL Phosphorylation High-Content Assay
HT29-L23 human colorectal adenocarcinoma cells were maintained in RPMI 1640 medium containing 10% heat-inactivated FBS, 1% Penicillin-Streptomycin and 10 mM HEPES. Cells were seeded at 2,000 cells/well in 384 well tissue culture-treated microplates (Greiner #781090-3B) and incubated at 37° C. (5% CO2/95% O2) for 2 d. On the day of the assay, the cells were treated with test compounds at final concentrations of 6.25 to 0.106 μM for 30 min at 37° C. (5% CO2/95% O2). Necroptopsis was induced using a mixture of human TNFα (35 ng/mL) (Peprotech #300-01A), SMAC mimetic (from US 2015/0322111 A1) (700 nM) and Z-VAD (140 nM) (BD pharmingen #51-6936). Following 6 h incubation at 37° C. (5% CO2/95% O2), the cells were fixed with 4% formaldehyde (ACROS 11969-0010) for 15 min at rt, then permeabilized with phosphate buffered saline (PBS) containing 0.2% Triton-X-100 for 10 min. MLKL phosphorylation was detected using anti-MLKL (phospho S358) antibody (Abcam #ab187091) (1:1000 dilution in Blocking Buffer [PBS supplemented with 0.1% BSA]) with ON incubation at 4° C. After washing three times in PBS, goat anti-rabbit Alexa-488 (1:1000 dilution) (Life Technologies, A1 1008) and Hoechst 33342 (Life Technologies, H3570) (1:2000 dilution) in Blocking Buffer were added for 1 h at rt. Following another three cycles of washes in PBS, the microplates were sealed, and cellular images were acquired in the Cellomics ArrayScan VTI high-content imager equipped with an X1 camera. Fluorescent images were taken using a 10× objective and the 386-23 BGRFRN_BGRFRN and 485-20 BGRFRN_BGRFRN filter sets, for nuclei and MLKL phosphorylation, respectively. The image sets were analyzed using the Compartmental Analysis Bioapplication software (Cellomics). The level of MLKL phosphorylation was quantified as MEAN_CircRingAvglntenRatio. The maximal inhibitory response was defined by the activity induced by Necls (CAS #: 852391-15-2, 6.25 μm). The IC50 value was defined as the concentration of compound that produces 50% of the maximal inhibition. The data were fitted using the 4-parameter logistic equation to calculate the IC50 and Ymax values.

CNC(=O)c1n[nH]c2cc(-c3nc(C)c(C(=O)NCCC(C)c4ccccc4)n3C)ccc12 (centres unmarked) [Example 27, 6-(1,4-dimethyl-5-((3-phenylbutyl)carbamoyl)-1H-imidazol-2-yl)-N-methyl-1H-indazole-3-carboxamide]
IC50 [1]: 220 nM
IC50 ([2]; Homo sapiens): 470 nM

CNC(=O)c1n[nH]c2cc(-c3nc(C)c(C(=O)NCC[C@@H](O)c4ccc(Cl)cc4)s3)ccc12 [Example 16, (R)-N-(3-(4-chlorophenyl)-3-hydroxypropyl)-4-methyl-2-(3-(methylcarbamoyl)-1H-indazol-6-yl)thiazole-5-carboxamide]
IC50 [1]: 150 nM
IC50 ([2]; Homo sapiens): 210 nM

CNC(=O)c1n[nH]c2cc(-c3ccc(C(=O)NCc4cc(OC(F)(F)F)ccc4F)s3)ccc12 [Example 6, 6-(5-((2-fluoro-5-(trifluoromethoxy)benzyl)carbamoyl)thiophen-2-yl)-N-methyl-1H-indazole-3-carboxamide]
IC50 [1]: 31 nM
IC50 ([2]; Homo sapiens): 56 nM

CNC(=O)c1n[nH]c2cc(-c3cc(C)c(C(=O)NCc4cc(OC(F)(F)F)ccc4F)s3)ccc12 [Example 10, 6-(5-((2-fluoro-5-(trifluoromethoxy)benzyl)carbamoyl)-4-methylthiophen-2-yl)-N-methyl-1H-indazole-3-carboxamide]
IC50 [1]: 2 nM
IC50 ([2]; Homo sapiens): 1 nM

CNC(=O)c1n[nH]c2cc(-c3nc(C)c(C(=O)NCC[C@@H](O)c4ccc(Cl)cc4)n3C)ccc12 [Example 28, (R)-6-(5-((3-(4-chlorophenyl)-3-hydroxypropyl)carbamoyl)-1,4-dimethyl-1H-imidazol-2-yl)-N-methyl-1H-indazole-3-carboxamide]
IC50 [1]: 460 nM
IC50 ([2]; Homo sapiens): 2600 nM

CNC(=O)c1n[nH]c2cc(-c3csc(C(=O)NCC[C@H](O)c4ccc(Cl)cc4)c3)ccc12 [Example 4, (S)-6-(5-((3-(4-chlorophenyl)-3-hydroxypropyl)carbamoyl)thiophen-3-yl)-N-methyl-1H-indazole-3-carboxamide]
IC50 [1]: 43 nM
IC50 ([2]; Homo sapiens): 230 nM

(S)-6-(5-((3-(4-chlorophenyl)-3-hydroxypropyl)carbamoyl)-4-methylthiophen-2-yl)-N-methyl-1H-indazole-3-carboxamide [Example 13]
IC50 [1]: 10 nM
IC50 [2]: 23 nM
